pIC50: −log10 of the molar value. Where two headings read alike, the source gives them in different places.
What was measured:
[1] = target: T1, human ACC1 (acetyl-coenzyme A carboxylase alpha transcript variant 1) (Homo sapiens, UniProt Q13085); experiment: Human ACC1 enzyme assay, Assay B1 (ADP-Glo); assay type: biochemical
T1 construct: FLAG (C); made in house; host or cells: baculovirus-infected insect cells (Hi5)

MCF7 = experiment: Cell proliferation assay (CellTiter-Glo, 96 h), MCF7; assay type: cell-based; conditions: Homo sapiens, MCF7; Table 7; 96-hour incubation
How it was run: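 Growth inhibition in percent was based on luminescence differences between treated and control samples after subtracting baseline readings taken at t=0. Cells had been incubated with compound for 96 hours at 37° C. following overnight plating.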

[2] = target: human ACC2 (acetyl-coenzyme A carboxylase 2) (Homo sapiens, UniProt O00763); experiment: Human ACC2 enzyme assay, Assay B2 (ADP-Glo);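 note: human ACC2 activity read as ADP product, detected by luciferase glow luminescence after residual ATP removal, enzyme near 2 ng/µl in linear range, detection steps at 22 °C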
human ACC2 (acetyl-coenzyme A carboxylase 2), sequence (O00763 27-2458 limits assumed): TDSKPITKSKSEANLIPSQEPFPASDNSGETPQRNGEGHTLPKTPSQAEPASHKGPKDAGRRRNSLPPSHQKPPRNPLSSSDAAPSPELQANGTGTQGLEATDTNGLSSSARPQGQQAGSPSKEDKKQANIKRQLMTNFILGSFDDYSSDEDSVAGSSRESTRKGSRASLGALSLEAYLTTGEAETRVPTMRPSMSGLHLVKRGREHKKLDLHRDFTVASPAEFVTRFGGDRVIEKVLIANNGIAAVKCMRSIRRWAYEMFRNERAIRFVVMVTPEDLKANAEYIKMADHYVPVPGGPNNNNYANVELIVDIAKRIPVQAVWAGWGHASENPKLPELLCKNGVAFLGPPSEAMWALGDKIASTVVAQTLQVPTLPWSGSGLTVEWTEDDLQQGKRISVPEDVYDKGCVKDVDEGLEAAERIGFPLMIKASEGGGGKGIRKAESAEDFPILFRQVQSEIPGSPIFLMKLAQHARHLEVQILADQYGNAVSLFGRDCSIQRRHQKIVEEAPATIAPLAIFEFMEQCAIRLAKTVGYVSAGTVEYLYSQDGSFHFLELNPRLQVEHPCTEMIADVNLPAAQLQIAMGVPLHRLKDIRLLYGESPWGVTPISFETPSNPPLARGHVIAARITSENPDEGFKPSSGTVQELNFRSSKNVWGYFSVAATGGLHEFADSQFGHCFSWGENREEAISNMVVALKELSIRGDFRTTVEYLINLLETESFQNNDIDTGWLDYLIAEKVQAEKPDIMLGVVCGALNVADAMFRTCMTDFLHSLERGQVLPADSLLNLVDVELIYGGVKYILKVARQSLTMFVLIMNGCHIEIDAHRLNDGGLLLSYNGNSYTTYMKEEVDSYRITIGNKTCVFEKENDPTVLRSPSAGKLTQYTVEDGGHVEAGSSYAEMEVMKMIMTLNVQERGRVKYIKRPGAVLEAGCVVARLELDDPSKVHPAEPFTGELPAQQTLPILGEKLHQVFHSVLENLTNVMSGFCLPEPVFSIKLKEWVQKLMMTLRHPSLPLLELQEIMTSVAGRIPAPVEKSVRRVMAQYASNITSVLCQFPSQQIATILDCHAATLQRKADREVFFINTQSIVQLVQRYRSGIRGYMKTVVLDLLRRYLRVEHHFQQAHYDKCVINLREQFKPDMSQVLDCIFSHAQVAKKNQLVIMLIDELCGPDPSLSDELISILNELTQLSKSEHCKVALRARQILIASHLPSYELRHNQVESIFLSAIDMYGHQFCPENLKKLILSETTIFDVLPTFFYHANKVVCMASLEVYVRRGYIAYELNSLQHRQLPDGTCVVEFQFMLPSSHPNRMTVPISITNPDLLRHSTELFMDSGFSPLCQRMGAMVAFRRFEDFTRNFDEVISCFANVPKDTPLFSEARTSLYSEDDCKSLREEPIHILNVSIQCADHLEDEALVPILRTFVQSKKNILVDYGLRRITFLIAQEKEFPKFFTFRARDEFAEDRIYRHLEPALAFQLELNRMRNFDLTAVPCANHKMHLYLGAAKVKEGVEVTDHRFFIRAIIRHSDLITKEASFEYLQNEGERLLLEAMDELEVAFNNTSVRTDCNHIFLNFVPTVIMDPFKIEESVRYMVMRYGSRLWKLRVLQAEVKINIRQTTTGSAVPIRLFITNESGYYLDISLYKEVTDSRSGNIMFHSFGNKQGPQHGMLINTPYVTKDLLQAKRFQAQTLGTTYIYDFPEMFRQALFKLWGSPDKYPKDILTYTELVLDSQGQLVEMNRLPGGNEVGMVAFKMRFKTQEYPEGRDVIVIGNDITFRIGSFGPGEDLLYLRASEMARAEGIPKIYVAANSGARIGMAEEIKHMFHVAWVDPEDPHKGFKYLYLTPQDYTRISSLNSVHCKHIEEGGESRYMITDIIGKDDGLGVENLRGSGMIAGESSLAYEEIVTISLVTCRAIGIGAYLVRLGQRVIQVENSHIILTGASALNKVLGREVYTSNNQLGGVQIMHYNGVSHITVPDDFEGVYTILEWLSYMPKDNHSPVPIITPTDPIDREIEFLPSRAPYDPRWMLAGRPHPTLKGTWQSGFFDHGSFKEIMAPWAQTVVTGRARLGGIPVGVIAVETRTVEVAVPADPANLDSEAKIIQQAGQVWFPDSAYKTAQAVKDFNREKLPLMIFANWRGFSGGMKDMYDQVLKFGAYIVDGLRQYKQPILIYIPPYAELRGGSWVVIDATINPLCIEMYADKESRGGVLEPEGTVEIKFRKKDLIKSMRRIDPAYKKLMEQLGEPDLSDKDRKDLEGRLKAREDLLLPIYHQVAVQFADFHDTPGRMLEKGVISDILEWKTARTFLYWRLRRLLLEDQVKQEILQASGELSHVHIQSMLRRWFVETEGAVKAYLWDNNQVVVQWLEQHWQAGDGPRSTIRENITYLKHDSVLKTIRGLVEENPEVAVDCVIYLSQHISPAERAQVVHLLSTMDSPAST

recombinant human ACC1 = recombinant human ACC1 (Homo sapiens, UniProt Q13085); experiment: Human ACC1 enzyme assay, Assay A1 (HTRF ADP immunoassay);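 note: ADP generated by the enzyme quantified via competitive time-resolved FRET, read as europium cryptate to d2 energy transfer after 1 h at 22 °C with labelled ADP tracer and anti-ADP antibody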
Method: The inhibitory activity of the substances of this invention with regard to acetyl-CoA carboxylase 1 (ACC1) was measured using the ACC1 assay described in the paragraphs below. The basic principle of the assay is the measurement of adenosine diphosphate (ADP), which is formed as a by-product, by means of an HTRF®-based competitive immunoassay (HTRF=Homogeneous Time Resolved Fluorescence).
Typical concentrations were in the range of 2.5 ng/μl.
The amount of complex between d2-labelled ADP and europium cryptate-labelled anti-ADP antibody was then determined by measuring the resonance energy transfer from the europium cryptate to d2.

[3] = target: acetyl-CoA carboxylase 2 (ACC2) (Homo sapiens, UniProt O00763); experiment: Human ACC2 enzyme assay, Assay A2 (HTRF ADP immunoassay);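 note: ADP generated by ACC2 quantified via competitive time-resolved FRET between europium cryptate anti-ADP antibody and d2-tagged ADP, enzyme kept in linear range near 0.6 ng/µl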
acetyl-CoA carboxylase 2 (ACC2), sequence (O00763 39-2458 limits assumed): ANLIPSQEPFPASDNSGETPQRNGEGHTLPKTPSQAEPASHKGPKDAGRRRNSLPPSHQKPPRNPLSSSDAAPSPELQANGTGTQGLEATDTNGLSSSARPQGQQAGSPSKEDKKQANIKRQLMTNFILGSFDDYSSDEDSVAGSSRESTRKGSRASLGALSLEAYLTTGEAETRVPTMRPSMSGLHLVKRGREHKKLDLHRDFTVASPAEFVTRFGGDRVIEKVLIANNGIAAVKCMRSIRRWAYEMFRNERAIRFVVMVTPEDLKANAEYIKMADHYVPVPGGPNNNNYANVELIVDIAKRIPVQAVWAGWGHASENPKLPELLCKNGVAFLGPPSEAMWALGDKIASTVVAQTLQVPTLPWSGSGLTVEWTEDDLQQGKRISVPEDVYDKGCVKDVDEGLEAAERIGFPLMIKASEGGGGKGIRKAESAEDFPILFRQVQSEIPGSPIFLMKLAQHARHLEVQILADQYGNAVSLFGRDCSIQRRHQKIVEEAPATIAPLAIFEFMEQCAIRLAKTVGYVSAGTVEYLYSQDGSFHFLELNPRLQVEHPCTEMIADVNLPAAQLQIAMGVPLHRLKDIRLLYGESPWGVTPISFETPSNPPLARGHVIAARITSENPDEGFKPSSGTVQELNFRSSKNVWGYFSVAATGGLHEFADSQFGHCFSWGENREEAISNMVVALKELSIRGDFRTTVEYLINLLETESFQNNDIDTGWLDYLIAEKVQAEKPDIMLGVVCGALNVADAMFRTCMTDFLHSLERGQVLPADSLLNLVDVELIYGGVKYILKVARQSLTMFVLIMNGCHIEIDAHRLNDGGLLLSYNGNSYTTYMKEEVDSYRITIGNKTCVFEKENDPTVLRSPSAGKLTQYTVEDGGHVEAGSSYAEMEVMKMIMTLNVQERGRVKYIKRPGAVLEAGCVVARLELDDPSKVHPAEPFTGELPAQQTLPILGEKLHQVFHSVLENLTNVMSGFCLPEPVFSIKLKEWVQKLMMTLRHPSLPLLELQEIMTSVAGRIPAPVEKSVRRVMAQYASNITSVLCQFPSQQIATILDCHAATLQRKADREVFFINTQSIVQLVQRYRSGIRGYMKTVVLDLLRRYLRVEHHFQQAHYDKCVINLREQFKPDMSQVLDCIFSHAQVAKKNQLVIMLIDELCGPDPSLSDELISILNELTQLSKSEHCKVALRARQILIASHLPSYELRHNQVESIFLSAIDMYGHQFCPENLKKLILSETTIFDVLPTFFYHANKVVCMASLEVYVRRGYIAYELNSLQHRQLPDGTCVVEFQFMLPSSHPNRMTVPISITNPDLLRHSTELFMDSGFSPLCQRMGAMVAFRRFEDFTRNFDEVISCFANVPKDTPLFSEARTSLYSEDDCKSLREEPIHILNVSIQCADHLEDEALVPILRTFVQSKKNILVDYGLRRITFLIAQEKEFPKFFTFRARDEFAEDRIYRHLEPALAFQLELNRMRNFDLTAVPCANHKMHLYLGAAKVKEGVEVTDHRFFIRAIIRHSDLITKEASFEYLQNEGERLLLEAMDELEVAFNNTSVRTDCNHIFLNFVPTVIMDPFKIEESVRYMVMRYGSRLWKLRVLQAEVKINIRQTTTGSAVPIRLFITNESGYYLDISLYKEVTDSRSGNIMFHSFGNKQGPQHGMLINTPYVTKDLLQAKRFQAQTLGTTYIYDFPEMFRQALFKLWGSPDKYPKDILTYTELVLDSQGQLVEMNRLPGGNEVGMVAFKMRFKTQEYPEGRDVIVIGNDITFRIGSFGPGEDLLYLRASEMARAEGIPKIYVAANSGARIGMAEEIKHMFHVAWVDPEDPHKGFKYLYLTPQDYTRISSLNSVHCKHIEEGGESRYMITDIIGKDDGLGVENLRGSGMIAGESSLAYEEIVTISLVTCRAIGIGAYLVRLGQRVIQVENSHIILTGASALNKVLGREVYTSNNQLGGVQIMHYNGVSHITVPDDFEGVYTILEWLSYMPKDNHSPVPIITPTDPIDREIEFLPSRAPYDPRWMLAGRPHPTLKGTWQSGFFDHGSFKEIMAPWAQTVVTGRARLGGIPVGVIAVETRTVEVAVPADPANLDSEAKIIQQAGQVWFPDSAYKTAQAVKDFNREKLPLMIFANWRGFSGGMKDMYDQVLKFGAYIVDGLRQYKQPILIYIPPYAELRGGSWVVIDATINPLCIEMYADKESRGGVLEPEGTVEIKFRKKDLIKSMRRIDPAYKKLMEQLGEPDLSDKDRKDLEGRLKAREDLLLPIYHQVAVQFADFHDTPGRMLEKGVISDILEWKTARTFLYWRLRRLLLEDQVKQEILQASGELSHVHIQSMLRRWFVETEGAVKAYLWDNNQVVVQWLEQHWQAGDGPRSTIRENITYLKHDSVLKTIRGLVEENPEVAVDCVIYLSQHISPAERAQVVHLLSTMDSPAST

[4] = Assay B1, read-out: ACC 1 (=B1) IC50

## CCO[C@H]1CC[C@@]2(CC1)NC(=O)C(c1cc(-c3ccc(Cl)cc3)ccc1C)=C2O [1-147, (5r,8r)-3-(4′-Chloro-4 methylbiphenyl-3-yl)-8-ethoxy-4-hydroxy-1-azaspiro[4.5]dec-3-en-2-one]
[1]; [4]
  pIC50: 6.82
MCF7
  pIC50: 6.76
[2]
  pIC50: 5.69
Recombinant human ACC1
  pIC50: 6.71
[3]
  pIC50: 5.90

## Cc1ccc(-c2ccc(Cl)cc2)cc1C1=C(O)[C@]2(CC[C@](O)(C(F)(F)F)CC2)NC1=O [1-122, (5r,8r)-3-(4′-Chloro-4-methylbiphenyl-3-yl)-4,8-dihydroxy-8-(trifluoromethyl)-1-azaspiro[4.5]dec-3-en-2-one]
[1]; [4]
  pIC50: 6.91
MCF7
  pIC50: 6.54
[2]
  pIC50: 5.18
Recombinant human ACC1
  pIC50: 7.01
[3]
  pIC50: 5.27

## Cc1c(F)cc(-c2ccc(F)c(F)c2)cc1C1=C(O)[C@]2(CC[C@H](C(F)(F)F)CC2)NC1=O [1-96, (5s,8s)-4-Hydroxy-8-(trifluoromethyl)-3-(3′,4′,5-trifluoro-4-methylbiphenyl-3-yl)-1-azaspiro[4.5]dec-3-en-2-one]
[1]; [4]
  pIC50: 6.62
MCF7
  pIC50: 6.97
[2]
  pIC50: < 4.70
Recombinant human ACC1
  pIC50: 6.38
[3]
  pIC50: < 4.70

## O=C1N[C@]2(CC[C@@H](C(F)(F)F)CC2)C(O)=C1c1cc(-c2ccc(F)c(F)c2)ccc1Cl [1-99, (5s,8s)-3-(4 Chloro-3′,4′-difluorobiphenyl-3-yl)-4-hydroxy-8-(trifluoromethyl)-1-azaspiro[4.5]dec-3-en-2-one]
[1]
  pIC50: 6.68
MCF7
  pIC50: 6.92
[2]
  pIC50: 4.95
Recombinant human ACC1
  pIC50: 6.49
[3]
  pIC50: 5.18

## Cc1ccc(-c2ccc(F)c(F)c2)cc1C1=C(O)C2(CCCCC2)NC1=O [1-115, 3-(3′,4′-Difluoro-4-methylbiphenyl-3-yl)-4-hydroxy-1-azaspiro[4.5]dec-3-en-2-one]
[1]
  pIC50: 6.71
MCF7
  pIC50: 7.01
[2]
  pIC50: 4.99
Recombinant human ACC1
  pIC50: 6.50
[3]
  pIC50: 5.30

## Cc1ccc(-c2ccc(Cl)c(F)c2)c(C)c1C1=C(O)[C@]2(CC[C@](O)(C(F)(F)F)CC2)NC1=O [1-126, (5r,8r)-3-(4′-Chloro-3′-fluoro-2,4-dimethylbiphenyl-3-yl)-4,8-dihydroxy-8-(trifluoromethyl)-1-azaspiro[4.5]dec-3-en-2-one]
[1]; [4]
  pIC50: 6.69
MCF7
  pIC50: 6.23
[2]
  pIC50: 4.91
Recombinant human ACC1
  pIC50: 6.52
[3]
  pIC50: 5.20

## COCC[C@H]1CC[C@]2(CC1)NC(=O)C(c1cc(-c3ccc(Cl)c(F)c3)ccc1C)=C2O [1-114, (5s,8s)-3-(4′-Chloro-3′-fluoro-4-methylbiphenyl-3-yl)-4-hydroxy-8-(2-methoxyethyl)-1-azaspiro[4.5]dec-3-en-2-one]
[1]; [4]
  pIC50: 6.95
MCF7
  pIC50: 7.37
[2]
  pIC50: 5.79
Recombinant human ACC1
  pIC50: 6.63
[3]
  pIC50: 5.66

## Cc1ccc(-c2ccc(Cl)cc2)cc1C1=C(O)[C@]2(CC[C@H](C(F)(F)F)CC2)NC1=O [1-119, (5s,8s)-3-(4′-Chloro-4 methylbiphenyl-3-yl)-4-hydroxy-8-(trifluoromethyl)-1-azaspiro[4.5]dec-3-en-2-one]
[1]; [4]
  pIC50: 6.96
MCF7
  pIC50: 7.43
[2]
  pIC50: 5.97
Recombinant human ACC1
  pIC50: 6.69
[3]
  pIC50: 6.32

## COC[C@H]1CC[C@]2(CC1)NC(=O)C(c1cc(-c3ccc(Cl)cc3)ccc1C)=C2O [1-116, (5s,8s)-3-(4′-Chloro-4 methylbiphenyl-3-yl)-4-hydroxy-8-(methoxymethyl)-1-azaspiro[4.5]dec-3-en-2-one]
[1]; [4]
  pIC50: 7.04
MCF7
  pIC50: 7.51
[2]
  pIC50: 6.23
Recombinant human ACC1
  pIC50: 6.63
[3]
  pIC50: 6.55

## CO[C@H]1CC[C@]2(CC1)NC(=O)C(c1cc(-c3ccc(Cl)cc3)cc(F)c1C)=C2O [1-106, (5s,8s)-3-(4′-Chloro 5 fluoro 4-methylbiphenyl-3-yl)-4-hydroxy-8-methoxy-1-azaspiro[4.5]dec-3-en-2-one]
[1]
  pIC50: 6.68
MCF7
  pIC50: 6.81
[2]
  pIC50: 5.23
Recombinant human ACC1
  pIC50: 6.36
[3]
  pIC50: 5.36

## Cc1ccc(-c2ccc(Cl)c(F)c2)cc1C1=C(O)[C@]2(CC[C@H](C)CC2)NC1=O [1-110, (5s,8s)-3-(4′-Chloro-3′-fluoro-4-methylbiphenyl-3-yl)-4-hydroxy-8-methyl-1-azaspiro[4.5]dec-3-en-2-one]
[1]; [4]
  pIC50: 7.10
MCF7
  pIC50: 7.35
[2]
  pIC50: 6.31
Recombinant human ACC1
  pIC50: 6.71
[3]
  pIC50: 6.19

## Cc1ccc(-c2ccc(Cl)c(F)c2)cc1C1=C(O)[C@]2(CC[C@](O)(C(F)(F)F)CC2)NC1=O [1-123, (5r,8r)-3-(4′-Chloro-3′-fluoro-4-methylbiphenyl-3-yl)-4,8-dihydroxy-8-(trifluoromethyl)-1-azaspiro[4.5]dec-3-en-2-one]
[1]; [4]
  pIC50: 6.25
MCF7
  pIC50: 6.51
[2]
  pIC50: 4.95
Recombinant human ACC1
  pIC50: 6.76
[3]
  pIC50: 5.46

## Cc1ccc(-c2ccc(Cl)cc2)cc1C1=C(O)[C@]2(CC[C@H](CO)CC2)NC1=O [1-117, (5s,8s)-3-(4′-Chloro-4 methylbiphenyl-3-yl)-4-hydroxy-8-(hydroxymethyl)-1-azaspiro[4.5]dec-3-en-2-one]
[1]
  pIC50: 6.71
MCF7
  pIC50: 7.19
[2]
  pIC50: 5.39
Recombinant human ACC1
  pIC50: 6.63
[3]
  pIC50: 6.09

## CO[C@H]1CC[C@]2(CC1)NC(=O)C(c1cc(-c3ccc(Cl)cc3)c(Cl)cc1C)=C2O [1-109, (5s,8s)-3-(4′,6-Dichloro-4-methylbiphenyl-3-yl)-4-hydroxy-8-methoxy-1-azaspiro[4.5]dec-3-en-2-one]
[1]
  pIC50: 6.53
MCF7
  pIC50: 7.43
[2]
  pIC50: 6.40
Recombinant human ACC1
  pIC50: 6.10
[3]
  pIC50: 6.99

## CC(C)[C@H]1CC[C@]2(CC1)NC(=O)C(c1cc(-c3ccc(Cl)cc3)ccc1Cl)=C2O [1-141, (5s,8s)-3-(4,4′-Dichlorobiphenyl-3-yl)-4-hydroxy-8-isopropyl-1-azaspiro[4.5]dec-3-en-2-one]
[1]
  pIC50: 6.79
MCF7
  pIC50: 7.10
[2]
  pIC50: 5.86
Recombinant human ACC1
  pIC50: 6.61
[3]
  pIC50: 6.20

## CO[C@H]1CC[C@]2(CC1)NC(=O)C(c1cc(-c3ccc(F)c(F)c3)cc(F)c1C)=C2O [1-107, (5s,8s)-4-Hydroxy-8-methoxy-3-(3′,4′,5-trifluoro-4-methylbiphenyl-3-yl)-1-azaspiro[4.5]dec-3-en 2-one]
[1]
  pIC50: 6.42
MCF7
  pIC50: 6.57
[2]
  pIC50: < 4.70
Recombinant human ACC1
  pIC50: 6.09
[3]
  pIC50: < 4.70

## Cc1cc(F)c(-c2ccc(Cl)cc2)cc1C1=C(O)[C@]2(CC[C@](O)(C(F)(F)F)CC2)NC1=O [1-127, (5r,8r)-3-(4′-Chloro-6-fluoro-4-methylbiphenyl-3-yl)-4,8-dihydroxy-8-(trifluoromethyl)-1-azaspiro[4.5]dec-3-en-2-one]
[1]; [4]
  pIC50: 6.84
MCF7
  pIC50: 5.85
[2]
  pIC50: 4.87
Recombinant human ACC1
  pIC50: 6.67
[3]
  pIC50: 5.32

## O=C1N[C@]2(CCC[C@H](C(F)(F)F)C2)C(O)=C1c1cc(-c2ccc(Cl)cc2)ccc1Cl [1-137, (5S,7S)-3-(4,4′-Dichlorobiphenyl-3-yl)-4-hydroxy-7-(trifluoromethyl)-1-azaspiro[4.5]dec-3-en-2-one]
[1]
  pIC50: 6.77
MCF7
  pIC50: 6.36
[2]
  pIC50: 5.13
Recombinant human ACC1
  pIC50: 6.51
[3]
  pIC50: 5.11

## Cc1cc(C)c(-c2ccc(Cl)cc2)cc1C1=C(O)[C@]2(CC[C@H](C(F)(F)F)CC2)NC1=O [1-98, (5s,8s)-3-(4′-Chloro-4,6-dimethylbiphenyl-3-yl)-4-hydroxy-8-(trifluoromethyl)-1-azaspiro[4.5]dec-3-en-2-one]
[1]
  pIC50: 5.99
MCF7
  pIC50: 7.00
[2]
  pIC50: 6.76
Recombinant human ACC1
  pIC50: 5.66
[3]
  pIC50: 6.69

## CO[C@H]1CC[C@]2(CC1)NC(=O)C(c1cc(-c3ccc(F)c(F)c3)ccc1Cl)=C2O [1-104, (5s,8s)-3-(4 Chloro-3′,4′-difluorobiphenyl-3-yl)-4-hydroxy-8-methoxy-1-azaspiro[4.5]dec-3-en-2-one]
[1]
  pIC50: 6.57
MCF7
  pIC50: 6.34
[2]
  pIC50: < 4.70
Recombinant human ACC1
  pIC50: 6.48
[3]
  pIC50: 4.75

## Cc1cc(F)c(-c2ccc(Cl)c(F)c2)cc1C1=C(O)C2(CCC(C(F)(F)F)CC2)NC1=O (mixture of isomers) [1-94, 3-(4′-Chloro-3′,6-difluoro-4-methylbiphenyl-3-yl)-4-hydroxy-8-(trifluoromethyl)-1-azaspiro[4.5]dec-3-en-2-one]
[1]; [4]
  pIC50: 7.00
MCF7
  pIC50: 7.07
[2]
  pIC50: 5.69
Recombinant human ACC1
  pIC50: 7.14
[3]
  pIC50: 6.06

## COC[C@H]1CC[C@]2(CC1)NC(=O)C(c1cc(-c3ccc(Cl)c(F)c3)ccc1Cl)=C2O [1-113, (5s,8s)-3-(4,4′-Dichloro-3′-fluorobiphenyl-3-yl)-4-hydroxy-8-(methoxymethyl)-1-azaspiro[4.5]dec-3-en-2-one]
[1]
  pIC50: 7.00
MCF7
  pIC50: 7.34
[2]
  pIC50: 5.57
Recombinant human ACC1
  pIC50: 6.59
[3]
  pIC50: 5.87

## CO[C@H]1CC[C@]2(CC1)NC(=O)C(c1cc(-c3ccc(Cl)c(F)c3)ccc1Cl)=C2O [1-103, (5s,8s)-3-(4,4′-Dichloro-3′-fluorobiphenyl-3-yl)-4-hydroxy-8-methoxy-1-azaspiro[4.5]dec-3-en-2-one]
[1]
  pIC50: 6.99
MCF7
  pIC50: 6.92
[2]
  pIC50: 5.37
Recombinant human ACC1
  pIC50: 6.82
[3]
  pIC50: 5.93

## CO[C@H]1CC[C@]2(CC1)NC(=O)C(c1cc(-c3ccc(F)c(F)c3)ccc1C)=C2O [1-136, (5s,8s)-3-(3′,4′-Difluoro-4-methylbiphenyl-3-yl)-4-hydroxy-8-methoxy-1-azaspiro[4.5]dec-3-en-2-one]
[1]
  pIC50: 6.63
MCF7
  pIC50: 6.81
[2]
  pIC50: 4.90
Recombinant human ACC1
  pIC50: 6.62
[3]
  pIC50: 5.19

Reference: patent US20130040935A1, “CYCLIC KETO-ENOLS FOR THERAPY” (BAYER INTELLECTUAL PROPERTY GMBH, priority 2010, published 2013)
